The source of these data is patent US11766443B2, “Cyclopentathiophene carboxamide derivatives as platelet activating factor receptor antagonists” (Boehringer Ingelheim International GmbH, priority 2021, dated 2023).

Converted amounts (≈) assume the structure as drawn.

The IC50 is the concentration at which inhibition is half-maximal. By solubility is commonly meant how much of the substance goes into solution per volume. Read a low solubility as a poorly soluble substance.

The target in one series is T1, human PAFR (Homo sapiens, UniProt P25105).
T1 construct: expressed in transfected cells; host or cells: HEK293
T1 sequence (P25105 whole entry): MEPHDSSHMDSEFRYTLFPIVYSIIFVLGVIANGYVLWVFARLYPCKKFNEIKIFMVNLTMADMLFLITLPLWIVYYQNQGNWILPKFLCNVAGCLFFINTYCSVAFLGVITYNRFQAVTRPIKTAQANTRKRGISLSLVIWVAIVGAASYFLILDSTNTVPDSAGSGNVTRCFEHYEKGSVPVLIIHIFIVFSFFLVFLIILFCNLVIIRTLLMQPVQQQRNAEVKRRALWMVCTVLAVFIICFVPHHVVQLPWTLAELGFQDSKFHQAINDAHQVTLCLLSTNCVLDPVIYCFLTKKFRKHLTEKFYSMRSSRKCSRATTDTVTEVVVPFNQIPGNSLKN
In words: cellular HTRF IP1 endpoint assay: inhibition of PAFR activation by PAF C-16 ligand. The series is classed as cell-based. To be noted: HEK293 cells overexpressing human PAFR; PAF ligand 11 nM. The protocol: The ability of compounds of formula (I.0) to inhibit the activation of the PAF receptor (PAFR) by the PAF C-16 ligand (PAF) is determined using the following cellular HTRF IP1 assay (IP1 Gq assay kit from Cisbio, Cat. no.: 62IP1APEJ) in assay buffer (1×HBSS, 20 mM Hepes, pH 7.4, 50 mM LiCl and containing 0.1% (w/v) BSA):
HEK293 cells overexpressing human PAFR (produced in-house) are seeded into a Poly-D-Lysine coated 384 well white cell culture microtiter assay plate with lid (15.000 cells per well). Subsequently, the plates are incubated over night at 37° C./5% CO2. On the next day, cells are being washed and subsequently, various concentrations of the test compounds (compounds in 100% DMSO; final concentration of DMSO in wells is 1%) are added to the assay plate via Echo 555 acoustic liquid handler. Plates are then incubated with lid for 90 minutes at 37° C./5% CO2. Thereafter, PAF ligand (Cayman Chemical Company, Item no.: 60900) is added at a final concentration of 11 nM. Plates are then incubated with lid for 60 minutes at 37° C./5% CO2. Then, 5 μl per well of Anti-IP1-Anti body-Cryptate solution and 5 μL per well of IP1-d2 solution are added to all wells of the plate and the plate is incubated for another 60 minutes light protected at room temperature. The emissions at 620 nm and 665 nm (Excitation wavelength: 320 nm) are measured using an Envision Reader (PerkinElmer).
On the technique in general: TR-FRET usually uses a lanthanide donor and a delayed reading to cut background.

Series [1] is described as follows: aqueous solubility in buffer (from DMSO stock, 24 h shaking, LC-UV). Particulars: pH 2.2, aqueous buffer, kinetic from dmso stock.
Protocol: The aqueous solubility of the test compound is determined by comparing the amount dissolved in buffer to the amount in an ACN/water (1/1) solution. Starting from a 10 mM DMSO stock solution aliquots are diluted with ACN/water (1/1) or buffer, respectively. After 24 h of shaking, the solutions are filtrated and analyzed by LC-UV. The amount dissolved in buffer is compared to the amount in the ACN solution.
Solubility will usually be measured from 0.001 to 0.125 mg/mL at a DMSO concentration of 2.5%. If more than 90% of the compound is dissolved in buffer, the value is marked with “>”.

With `Cc1nnc2n1-c1sc3c(c1C(c1ccccc1Cl)NC2)CC(C(=O)N1CCOCC1)C3` (racemic) [Example 1, 9-(2-Chlorophenyl)-3-methyl-13-(morpholine-4-carbonyl)-16-thia-2,4,5,8-tetraazatetracyclo[8.6.0.0^2,6.0^11,15]-hexadeca-1(10),3,5,11(15)-tetraene], the IC50 on human PAFR worked out at 102 nM. Also, in series [1], the solubility at 24 h was above 115 µg/mL.

For `CCc1ccccc1C1NCc2nnc(C)n2-c2sc3c(c21)CC(C(=O)N1CCOCC1)C3` (racemic) [Example 53, 9-(2-Ethylphenyl)-3-methyl-13-(morpholine-4-carbonyl)-16-thia-2,4,5,8-tetraazatetracyclo[8.6.0.0^2,6.0^11,15]hexadeca-1(10),3,5,11(15)-tetraene], half-maximal inhibition on human PAFR (IC50) required 297 nM. Besides, the solubility at 24 h in series [1] is 116 µg/mL (≈ 250 µM).

Regarding `Cc1nnc2n1-c1sc3c(c1C(c1ccccc1F)NC2)CC(C(=O)N1CCOCC1)C3` (racemic) [Example 55, 9-(2-Fluorophenyl)-3-methyl-13-(morpholine-4-carbonyl)-16-thia-2,4,5,8-tetraazatetracyclo[8.6.0.0^2,6.0^11,15]hexadeca-1(10),3,5,11(15)-tetraene], it took 240 nM to reach half-maximal inhibition against human PAFR (IC50). The molecule also displayed a solubility at 24 h in series [1] above 112 µg/mL.

Take `Cc1nnc2n1-c1sc3c(c1C(c1ccccc1Br)NC2)CC(C(=O)N1CCOCC1)C3` (racemic) [Example 57, 9-(2-Bromophenyl)-3-methyl-13-(morpholine-4-carbonyl)-16-thia-2,4,5,8-tetraazatetracyclo[8.6.0.0^2,6.0^11,15]hexadeca-1(10),3,5,11(15)-tetraene]: at human PAFR, the IC50 was determined as 161 nM. Besides, the solubility at 24 h in series [1] is above 128 µg/mL.

With `Cc1nnc2n1-c1sc3c(c1C(c1ccccc1C1CC1)NC2)CC(C(=O)N1CCOCC1)C3` (racemic) [Example 59, 9-(2-Cyclopropylphenyl)-3-methyl-13-(morpholine-4-carbonyl)-16-thia-2,4,5,8-tetraazatetracyclo[8.6.0.0^2,6.0^11,15]-hexadeca-1(10),3,5,11(15)-tetraene], the 50% inhibitory concentration (IC50) against human PAFR is above 322 nM. For the same molecule, the solubility at 24 h in series [1] was above 119 µg/mL.

Molecule `Cc1nnc2n1-c1sc3c(c1C(c1ccccc1CO)NC2)CC(C(=O)N1CCOCC1)C3` (racemic) [Example 60, {2-[3-Methyl-13-(morpholine-4-carbonyl)-16-thia-2,4,5,8-tetraazatetracyclo[8.6.0.0^2,6.0^11,15]hexadeca-1(10),3,5,11(15)-tetraen-9-yl]phenyl}methanol] registered an IC50 at human PAFR above 322 nM.

For `Cc1nnc2n1-c1sc3c(c1C(c1ccccc1O)NC2)CC(C(=O)N1CCOCC1)C3` (racemic) [Example 61, 2-[3-Methyl-13-(morpholine-4-carbonyl)-16-thia-2,4,5,8-tetraazatetracyclo[8.6.0.0^2,6.0^11,15]hexadeca-1(10),3,5,11(15)-tetraen-9-yl]phenol], the IC50 on human PAFR was above 322 nM. In addition, in series [1], the solubility at 24 h was above 113 µg/mL.

Regarding `CSc1ccccc1C1NCc2nnc(C)n2-c2sc3c(c21)C[C@H](C(=O)N1CCOCC1)C3` (mixture of isomers) [Example 79, 3-Methyl-9-[2-(methylsulfanyl)phenyl]-13-(morpholine-4-carbonyl)-16-thia-2,4,5,8-tetraazatetracyclo[8.6.0.0^2,6.0^11,15]hexadeca-1(10),3,5,11(15)-tetraene], the concentration for half-maximal inhibition (IC50) against human PAFR turned out to be 235 nM. The solubility at 24 h in series [1] is above 119 µg/mL.

In turn, `CCCc1nnc2n1-c1sc3c(c1[C@@H](c1ccccc1Cl)NC2)CC(C(=O)N1CCOCC1)C3` (stereo in doubt) [Example 80, 9-(2-Chlorophenyl)-13-(morpholine-4-carbonyl)-3-propyl-16-thia-2,4,5,8-tetraazatetracyclo[8.6.0.0^2,6.0^11,15]hexadeca-1(10),3,5,11(15)-tetraene] displayed an IC50 on human PAFR of 110 nM. Further, the solubility at 24 h in series [1] was above 104 µg/mL.

As for `Cc1nnc2n1-c1sc3c(c1[C@@H](c1ccccc1Cl)NC2)C[C@H](C(=O)N1CCOCC1)C3` [Example 3, (9S,13S)-9-(2-chlorophenyl)-3-methyl-13-(morpholine-4-carbonyl)-16-thia-2,4,5,8-tetraazatetracyclo[8.6.0.0^2,6.0^11,15]-hexadeca-1(10),3,5,11(15)-tetraene], at human PAFR, the IC50 came out at 423 nM. This molecule also came in with a solubility at 24 h in series [1] above 118 µg/mL.

On human PAFR, `Cc1nnc2n1-c1sc3c(c1C(c1ccc(Cl)cc1)NC2)CC(C(=O)N1CCOCC1)C3` (stereo not drawn) [Example 52, 9-(4-Chlorophenyl)-3-methyl-13-(morpholine-4-carbonyl)-16-thia-2,4,5,8-tetraazatetracyclo[8.6.0.0^2,6.0^11,15]hexadeca-1(10),3,5,11(15)-tetraene] returned an IC50 of 283 nM.

`COc1ccccc1C1NCc2nnc(C)n2-c2sc3c(c21)CC(C(=O)N1CCOCC1)C3` (stereo not drawn) [Example 54, 9-(2-Methoxyphenyl)-3-methyl-13-(morpholine-4-carbonyl)-16-thia-2,4,5,8-tetraazatetracyclo[8.6.0.0^2,6.0^11,15]-hexadeca-1(10),3,5,11(15)-tetraene]: the solubility at 24 h in series [1] was found to be 49 µg/mL (≈ 105 µM).

In turn, `Cc1nnc2n1-c1sc3c(c1C(c1ccccc1C(F)(F)F)NC2)CC(C(=O)N1CCOCC1)C3` (stereo not drawn) [Example 56, 3-Methyl-13-(morpholine-4-carbonyl)-9-[2-(trifluoromethyl)phenyl]-16-thia-2,4,5,8-tetraazatetracyclo[8.6.0.0^2,6.0^11,15]-hexadeca-1(10),3,5,11(15)-tetraene] showed a solubility at 24 h in series [1] above 126 µg/mL.

`Cc1nnc2n1-c1sc3c(c1C(c1cc(F)cc(F)c1)NC2)CC(C(=O)N1CCOCC1)C3` (stereo not drawn) [Example 58, 9-(3,5-Difluorophenyl)-3-methyl-13-(morpholine-4-carbonyl)-16-thia-2,4,5,8-tetraazatetracyclo[8.6.0.0^2,6.0^11,15]-hexadeca-1(10),3,5,11(15)-tetraene] returned a solubility at 24 h in series [1] above 118 µg/mL.

Molecule `Cc1ccccc1[C@H]1NCc2nnc(C)n2-c2sc3c(c21)C[C@H](C(=O)N1CCOCC1)C3` [Example 63, (9R,13S)-3-Methyl-9-(2-methylphenyl)-13-(morpholine-4-carbonyl)-16-thia-2,4,5,8-tetraazatetracyclo[8.6.0.0^2,6.0^11,15]-hexadeca-1(10),3,5,11(15)-tetraene] yielded a solubility at 24 h in series [1] above 110 µg/mL.

Take `CCc1nnc2n1-c1sc3c(c1[C@H](c1ccccc1Cl)NC2)C[C@@H](C(=O)N1CCOCC1)C3` [Example 70]: the IC50 against human PAFR was above 1000 nM.

At human PAFR, `CCc1nnc2n1-c1sc3c(c1[C@@H](c1ccccc1Cl)NC2)C[C@@H](C(=O)N1CCOCC1)C3` [Example 71] returned an IC50 above 999 nM.

`Cc1nnc2n1-c1sc3c(c1[C@@H](c1ccccc1)NC2)C[C@@H](C(=O)N1CCOCC1)C3` [Example 75] returned an IC50 on human PAFR above 568 nM.

For `Cc1nnc2n1-c1sc3c(c1[C@H](c1ccccc1)NC2)C[C@H](C(=O)N1CCOCC1)C3` [Example 76], the IC50 against human PAFR turned out to be 140 nM.

`Cc1nnc2n1-c1sc3c(c1[C@H](c1ccccc1)NC2)C[C@@H](C(=O)N1CCOCC1)C3` [Example 77]: on human PAFR, the half-maximal inhibitory concentration (IC50) is above 1000 nM.

`Cc1nnc2n1-c1sc3c(c1[C@@H](c1ccccc1)NC2)C[C@H](C(=O)N1CCOCC1)C3` [Example 78] had an IC50 against human PAFR above 1000 nM.
